{
  "source": "ChEMBL document CHEMBL4130359",
  "about": "“Indazole-based ligands for estrogen-related receptor α as potential anti-diabetic agents” (Eur J Med Chem, 2017)",
  "key": {"[1]": {"target": "Retinoic acid receptor RXR-alpha (Homo sapiens, UniProt P19793)", "sequence (P19793 whole entry, the tested form may be a part)": "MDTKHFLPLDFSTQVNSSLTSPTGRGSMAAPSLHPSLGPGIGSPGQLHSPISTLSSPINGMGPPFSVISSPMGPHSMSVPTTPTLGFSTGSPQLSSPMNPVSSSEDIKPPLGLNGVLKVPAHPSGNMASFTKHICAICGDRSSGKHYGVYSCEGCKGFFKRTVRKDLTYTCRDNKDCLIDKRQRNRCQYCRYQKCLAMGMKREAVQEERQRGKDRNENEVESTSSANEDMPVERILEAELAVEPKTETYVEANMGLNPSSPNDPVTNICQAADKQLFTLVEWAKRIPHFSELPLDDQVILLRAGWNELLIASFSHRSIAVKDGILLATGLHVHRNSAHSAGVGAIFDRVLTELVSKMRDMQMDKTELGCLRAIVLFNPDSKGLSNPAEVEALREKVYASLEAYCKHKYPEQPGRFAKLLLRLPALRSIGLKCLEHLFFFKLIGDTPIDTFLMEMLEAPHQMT", "test": "Antagonist activity at recombinant GST-tagged human RXRalpha LBD assessed as inhibition of 9-cis-retinoic acid-induced fluorescein-labeled coactivator peptide recruitment preincubated with enzyme followed by coactivator addition by LanthaScreen TR-FRET assay"}, "[2]": {"test": "Cmax in ob/ob mouse at 18 mg/kg administered via oral gavage by LC-MS analysis", "assay_type": "ADME, organism-based", "parameters": "dose 18 mg/kg, route oral", "conditions": "in vivo"}, "Rattus norvegicus [3]": {"system": "Rattus norvegicus", "test": "Antidiabetic activity in Zucker rat sub-chronic fa/fa prediabetic model assessed as fasting blood insulin level at 50 mg/kg, po qd for 31 days measured on day 29 post dose (reference value: 8.5 +/- 1.4 ug/L)", "assay_type": "functional"}, "[4]": {"test": "Cmax in Zucker rat sub-chronic fa/fa prediabetic model at 1 mg/kg, po qd measured on day 1 post dose", "assay_type": "ADME, organism-based", "parameters": "dose 1 mg/kg, route oral", "conditions": "in vivo"}, "Rattus norvegicus [5]": {"system": "Rattus norvegicus", "test": "Toxicity in Zucker rat sub-chronic fa/fa prediabetic model assessed as food intake at 1 mg/kg, po qd for 29 days measured on day 1 to 29 during compound dosing (reference value: 969 +/- 18 g)", "assay_type": "organism-based", "conditions": "in vivo, 696 h"}, "Rattus norvegicus [6]": {"system": "Rattus norvegicus", "test": "Toxicity in Zucker rat sub-chronic fa/fa prediabetic model assessed as epididymal white adipose tissue weight at 3 mg/kg, po qd for 31 days measured on day 32 (reference value: 13.9 +/- 0.6 g)", "assay_type": "organism-based", "conditions": "in vivo, 744 h"}, "Rattus norvegicus [7]": {"system": "Rattus norvegicus", "test": "Toxicity in Zucker rat sub-chronic fa/fa prediabetic model assessed as heart weight at 10 mg/kg, po qd for 31 days measured on day 32 (reference value: 1.19 +/- 0.04 g)", "assay_type": "organism-based", "conditions": "in vivo, 744 h"}, "Rattus norvegicus [8]": {"system": "Rattus norvegicus", "test": "Toxicity in Zucker rat sub-chronic fa/fa prediabetic model assessed as triglyceride level per gram liver at 3 mg/kg, po qd for 31 days measured on day 32 (reference value: 163.4 +/- 8.3 mg)", "assay_type": "organism-based", "conditions": "in vivo, 744 h"}, "Rattus norvegicus [9]": {"system": "Rattus norvegicus", "test": "Toxicity in Zucker rat sub-chronic fa/fa prediabetic model assessed as serum triglyceride level at 1 mg/kg, po qd for 31 days measured on day 32 (reference value: 1382 +/- 268 mg/dl)", "assay_type": "organism-based", "conditions": "in vivo, 744 h"}, "Rattus norvegicus [10]": {"system": "Rattus norvegicus", "test": "Toxicity in Zucker rat sub-chronic fa/fa prediabetic model assessed as serum triglyceride level at 3 mg/kg, po qd for 31 days measured on day 32 (reference value: 1382 +/- 268 mg/dl)", "assay_type": "organism-based", "conditions": "in vivo, 744 h"}, "Rattus norvegicus [11]": {"system": "Rattus norvegicus", "test": "Toxicity in Zucker rat sub-chronic fa/fa prediabetic model assessed as serum ALT level at 3 mg/kg, po qd for 31 days measured on day 32 (reference value: 151 +/- 23 U/L)", "assay_type": "organism-based", "conditions": "in vivo, 744 h"}, "Rattus norvegicus [12]": {"system": "Rattus norvegicus", "test": "Toxicity in Zucker rat sub-chronic fa/fa prediabetic model assessed as serum AST level at 10 mg/kg, po qd for 31 days measured on day 32 (reference value: 187 +/- 37 U/L)", "assay_type": "organism-based", "conditions": "in vivo, 744 h"}, "Rattus norvegicus [13]": {"system": "Rattus norvegicus", "test": "Toxicity in Zucker rat sub-chronic fa/fa prediabetic model assessed as serum creatinine level at 10 mg/kg, po qd for 31 days measured on day 32 (reference value: 0.71 +/- 0.07 mg/dl)", "assay_type": "organism-based", "conditions": "in vivo, 744 h"}, "Rattus norvegicus [14]": {"system": "Rattus norvegicus", "test": "Antidiabetic activity in Zucker rat sub-chronic fa/fa prediabetic model assessed as increase in serum adiponectin level at 50 mg/kg, po qd for 32 days by ELISA relative to control", "assay_type": "functional"}, "[15]": {"test": "Cmax in […] chronic ob/ob model at 10 mg/kg, po qd for 28 days measured on day 28 post last dose", "assay_type": "ADME, organism-based", "parameters": "dose 10 mg/kg, route oral", "conditions": "in vivo"}, "[16]": {"test": "AUC (0 to 24 hrs) in […] model at 10 mg/kg, po qd measured on day 1 post dose", "assay_type": "ADME, organism-based", "parameters": "dose 10 mg/kg, time < 24 hr, route oral", "conditions": "in vivo"}, "Rattus norvegicus [17]": {"system": "Rattus norvegicus", "test": "Toxicity in […] chronic ob/ob model assessed as body weight at 50 mg/kg, po qd for 28 days measured on day 28 post last dose (reference value: 47.3 +/- 1.06 g)", "assay_type": "organism-based", "conditions": "in vivo, 672 h"}, "Rattus norvegicus [18]": {"system": "Rattus norvegicus", "test": "Toxicity in […] chronic ob/ob model assessed as change in body weight at 50 mg/kg, po qd for 28 days measured on day 1 to 28 during compound dosing (reference value: 9.9 +/- 1.27 g)", "assay_type": "organism-based", "conditions": "in vivo, 672 h"}, "Rattus norvegicus [19]": {"system": "Rattus norvegicus", "test": "Toxicity in […] chronic ob/ob model assessed as food intake at 3 mg/kg, po qd for 28 days measured on day 1 to 28 during compound dosing (reference value: 170.6 +/- 3 g)", "assay_type": "organism-based", "conditions": "in vivo, 672 h"}, "Rattus norvegicus [20]": {"system": "Rattus norvegicus", "test": "Toxicity in […] model assessed as liver weight at 50 mg/kg, po qd for 31 days measured on day 32 (reference value: 2.77 +/- 0.16 g)", "assay_type": "organism-based", "conditions": "in vivo, 744 h"}, "Rattus norvegicus [21]": {"system": "Rattus norvegicus", "test": "Toxicity in […] chronic ob/ob model assessed as epididymal white adipose tissue weight at 10 mg/kg, po qd for 31 days measured on day 32 (reference value: 3.92 +/- 0.14 g)", "assay_type": "organism-based", "conditions": "in vivo, 744 h"}, "Rattus norvegicus [22]": {"system": "Rattus norvegicus", "test": "Increase in PCK1 mRNA expression in epididymal white adipose tissue of Zucker rat sub-chronic fa/fa prediabetic model at 10 mg/kg, po qd for 15 days by RT-PCR method", "assay_type": "functional, organism-based"}, "Rattus norvegicus [23]": {"system": "Rattus norvegicus", "test": "Effect on SDHD gene expression in epididymal white adipose tissue of Zucker rat sub-chronic fa/fa prediabetic model at 10 mg/kg, po qd for 15 days by microarray analysis relative to control", "assay_type": "functional"}, "Rattus norvegicus [24]": {"system": "Rattus norvegicus", "test": "Effect on ATP5C1 gene expression in epididymal white adipose tissue of Zucker rat sub-chronic fa/fa prediabetic model at 10 mg/kg, po qd for 15 days by microarray analysis relative to control", "assay_type": "functional"}, "Rattus norvegicus [25]": {"system": "Rattus norvegicus", "test": "Effect on NDUFB9 gene expression in epididymal white adipose tissue of Zucker rat sub-chronic fa/fa prediabetic model at 10 mg/kg, po qd for 15 days by microarray analysis relative to control", "assay_type": "functional"}, "Rattus norvegicus [26]": {"system": "Rattus norvegicus", "test": "Effect on ACADM gene expression in epididymal white adipose tissue of Zucker rat sub-chronic fa/fa prediabetic model at 10 mg/kg, po qd for 15 days by microarray analysis relative to control", "assay_type": "functional"}, "Rattus norvegicus [27]": {"system": "Rattus norvegicus", "test": "Effect on IKBKB gene expression in epididymal white adipose tissue of Zucker rat sub-chronic fa/fa prediabetic model at 10 mg/kg, po qd for 15 days by microarray analysis relative to control", "assay_type": "functional"}, "Rattus norvegicus [28]": {"system": "Rattus norvegicus", "test": "Effect on CPT2 gene expression in epididymal white adipose tissue of Zucker rat sub-chronic fa/fa prediabetic model at 10 mg/kg, po qd for 15 days by microarray analysis relative to control", "assay_type": "functional"}, "Rattus norvegicus [29]": {"system": "Rattus norvegicus", "test": "Effect on PPP2R5B gene expression in epididymal white adipose tissue of Zucker rat sub-chronic fa/fa prediabetic model at 10 mg/kg, po qd for 15 days by microarray analysis relative to control", "assay_type": "functional"}, "Rattus norvegicus [30]": {"system": "Rattus norvegicus", "test": "Effect on ACOX1 gene expression in epididymal white adipose tissue of Zucker rat sub-chronic fa/fa prediabetic model at 10 mg/kg, po qd for 15 days by microarray analysis relative to control", "assay_type": "functional"}, "Rattus norvegicus [31]": {"system": "Rattus norvegicus", "test": "Effect on IL1RN gene expression in epididymal white adipose tissue of Zucker rat sub-chronic fa/fa prediabetic model at 10 mg/kg, po qd for 15 days by microarray analysis relative to control", "assay_type": "functional"}, "Rattus norvegicus [32]": {"system": "Rattus norvegicus", "test": "Effect on NR1H2 gene expression in epididymal white adipose tissue of Zucker rat sub-chronic fa/fa prediabetic model at 10 mg/kg, po qd for 15 days by microarray analysis relative to control", "assay_type": "functional"}},
  "note": "Active and inactive are the calls of the source. The rule behind the calls is not given here.",
  "data": [
    {"smiles": "CN1CC[C@@H](N2C(=O)S/C(=C\\c3ccc4c(cnn4Cc4ccc(Cl)cc4C(F)(F)F)c3)C2=O)[C@H](F)C1", "values": [
      {"measurement": "IC50", "setting": "[1]", "value": "> 10", "unit": "µM"},
      {"measurement": "Cmax", "setting": "[2]", "value": 829, "unit": "ng/mL"},
      {"measurement": "Activity", "setting": "Rattus norvegicus [3]", "value": 0.7, "unit": "µg/L"},
      {"measurement": "Cmax", "setting": "[4]", "value": 262, "unit": "ng/mL"},
      {"measurement": "Activity", "setting": "Rattus norvegicus [5]", "value": 975, "unit": "g"},
      {"measurement": "Activity", "setting": "Rattus norvegicus [6]", "value": 17.8, "unit": "g"},
      {"measurement": "Activity", "setting": "Rattus norvegicus [7]", "value": 1.11, "unit": "g"},
      {"measurement": "Activity", "setting": "Rattus norvegicus [8]", "value": 124.7, "unit": "mg"},
      {"measurement": "Activity", "setting": "Rattus norvegicus [9]", "value": 1040, "unit": "mg/dL"},
      {"measurement": "Activity", "setting": "Rattus norvegicus [10]", "value": 584, "unit": "mg/dL"},
      {"measurement": "Activity", "setting": "Rattus norvegicus [11]", "value": 117, "unit": "U/L"},
      {"measurement": "Activity", "setting": "Rattus norvegicus [12]", "value": 98, "unit": "U/L"},
      {"measurement": "Activity", "setting": "Rattus norvegicus [13]", "value": 0.57, "unit": "mg/dL"},
      {"measurement": "fold change (FC)", "setting": "Rattus norvegicus [14]", "value": 3.3},
      {"measurement": "Cmax", "setting": "[15]", "value": 454, "unit": "ng/mL"},
      {"measurement": "AUC(0-t) at 24 h", "setting": "[16]", "value": 3940, "unit": "ng·h/mL"},
      {"measurement": "Activity", "setting": "Rattus norvegicus [17]", "value": 46.8, "unit": "g"},
      {"measurement": "Activity", "setting": "Rattus norvegicus [18]", "value": 9.4, "unit": "g"},
      {"measurement": "Activity", "setting": "Rattus norvegicus [19]", "value": 159.1, "unit": "g"},
      {"measurement": "Activity", "setting": "Rattus norvegicus [20]", "value": 2.61, "unit": "g"},
      {"measurement": "Activity", "setting": "Rattus norvegicus [21]", "value": 3.29, "unit": "g"},
      {"measurement": "Activity", "setting": "Rattus norvegicus [22]", "value": "Active"},
      {"measurement": "fold change (FC)", "setting": "Rattus norvegicus [23]", "value": 1.275},
      {"measurement": "fold change (FC)", "setting": "Rattus norvegicus [24]", "value": 1.239},
      {"measurement": "fold change (FC)", "setting": "Rattus norvegicus [25]", "value": 1.214},
      {"measurement": "fold change (FC)", "setting": "Rattus norvegicus [26]", "value": 1.475},
      {"measurement": "fold change (FC)", "setting": "Rattus norvegicus [27]", "value": -1.241},
      {"measurement": "fold change (FC)", "setting": "Rattus norvegicus [28]", "value": 2.352},
      {"measurement": "fold change (FC)", "setting": "Rattus norvegicus [29]", "value": 1.276},
      {"measurement": "fold change (FC)", "setting": "Rattus norvegicus [30]", "value": 1.495},
      {"measurement": "fold change (FC)", "setting": "Rattus norvegicus [31]", "value": -1.209},
      {"measurement": "fold change (FC)", "setting": "Rattus norvegicus [32]", "value": -1.407}
    ]}
  ]
}
